Measured values from US20090131431A1, “Pyrazolo[3,4-b]pyridine compounds, and their use as a PDE4 inhibitors” (priority 2005, published 2009).

Key:
COPD patients = conditions: cited from earlier work
[1] = tested on: atopic dermatitis patients; conditions: cited from earlier work
[2] = tested on: humans with histories of allergic rhinitis; conditions: orally 500 ug once daily for 9 days; intranasal allergen provocation (pollen extracts); cited from earlier work
[3] = target: T1, PDE4B (human recombinant) (Homo sapiens, UniProt Q07343); experiment: Inhibition of PDE4B activity: SPA and/or Fluorescence Polarisation (FP) assay; format: biochemical; conditions: one reading (n=1) or average of 2 or more readings, read-out: PDE4B pIC50 (±about 0.5) (converted)
T1 construct: made in house
T1 sequence (Q07343 1-564 isoform Q07343-2): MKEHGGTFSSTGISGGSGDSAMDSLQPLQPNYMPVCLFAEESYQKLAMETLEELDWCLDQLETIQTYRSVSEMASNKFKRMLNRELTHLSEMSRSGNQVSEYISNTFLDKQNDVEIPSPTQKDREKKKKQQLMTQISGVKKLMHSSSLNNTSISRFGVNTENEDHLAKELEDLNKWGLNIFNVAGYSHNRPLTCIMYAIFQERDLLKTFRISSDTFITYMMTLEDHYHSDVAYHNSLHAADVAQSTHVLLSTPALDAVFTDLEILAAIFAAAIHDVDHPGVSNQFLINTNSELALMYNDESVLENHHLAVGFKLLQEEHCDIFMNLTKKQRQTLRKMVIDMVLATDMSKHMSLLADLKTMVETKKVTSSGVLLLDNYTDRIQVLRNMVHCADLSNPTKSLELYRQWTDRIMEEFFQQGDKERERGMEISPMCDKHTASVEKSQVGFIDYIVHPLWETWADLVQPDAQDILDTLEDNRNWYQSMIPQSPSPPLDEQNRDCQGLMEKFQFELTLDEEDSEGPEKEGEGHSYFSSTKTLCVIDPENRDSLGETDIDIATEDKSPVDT
Outline: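 Human recombinant PDE4B activity measured by SPA with [3H]cAMP at about 10 nM, 1 h at ambient temperature, enzyme set for ≤20% substrate hydrolysis, or by IMAP FP with Fl-cAMP at about 40 nM, 40 min at ambient temperature under linear conditions. Inhibition curves fitted; values reported as pIC50.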

| SMILES | IC50 [3] [nM] | other results |
| --- | --- | --- |
| COc1ccc([C@]2(C#N)CC[C@@H](C(=O)O)CC2)cc1OC1CCCC1 [cilomilast] | – | forced expiratory volume in 1s (FEV1) in COPD patients (COPD patients; 15 mg orally twice daily): appears to improve forced expiratory volume in 1s (FEV1); antiinflammatory effects in COPD patients (COPD patients; human, in vivo): appears to have antiinflammatory effects |
| COc1ccc(C2CNC(=O)NC2)cc1O[C@H]1C[C@@H]2CC[C@H]1C2 [CP80,633] | – | inflammatory parameters in atopic dermatitis patients ([1]; 0.5% ointment, twice daily topical application): reductions of inflammatory parameters |
| Nc1nc2c([nH]1)c(=O)n(CC1CC1)c(=O)n2CC1CC1 [cipamfylline] | – | effectiveness in the treatment of atopic dermatitis patients ([1]; 0.15% cream, vs vehicle and hydrocortisone 17-butyrate (0.1%) cream): significantly more effective than vehicle, but significantly less effective than hydrocortisone 17-butyrate (0.1%) cream |
| O=C(Nc1c(Cl)cncc1Cl)c1ccc(OC(F)F)c(OCC2CC2)c1 [roflumilast] | – | FEV1 in COPD patients (COPD patients; human, in vivo): appears to show small improvements in FEV1; rhinal airflow during the treatment period (compared to placebo) [2]: effective in improving rhinal airflow |
| CCc1nc2c(cnn2CC)c(NC2CCOCC2)c1CNC(=O)c1cc(S(=O)(=O)NC2CCC2)ccc1OC [Example 186, 5-[(cyclobutylamino)sulfonyl]-N-{[1,6-diethyl-4-(tetrahydro-2H-pyran-4-ylamino)-1H-pyrazolo[3,4-b]pyridin-5-yl]methyl}-2-(methyloxy)benzamide] | 0.01 to 0.1 | – |
| CCOc1ccccc1C(=O)NCc1c(C)nc2c(cnn2CC)c1NC1CCOCC1 [Example 219, N-{[1-ethyl-6-methyl-4-(tetrahydro-2H-pyran-4-ylamino)-1H-pyrazolo[3,4-b]pyridin-5-yl]methyl}-2-(ethyloxy)benzamide] | 0.126 to 1 | – |
| CCc1nc2c(cnn2CC)c(NC2CCN(C(N)=O)CC2)c1CNC(=O)c1ccc(N2CCCC2=O)cc1 [Example 209, 4-({1,6-diethyl-5-[({[4-(2-oxo-1-pyrrolidinyl)phenyl]carbonyl}amino)methyl]-1H-pyrazolo[3,4-b]pyridin-4-yl}amino)-1-piperidinecarboxamide] | 0.01 to 0.1 | – |
| CCc1nc2c(cnn2CC)c(NC2CCOCC2)c1CNC(=O)c1cccc2ccccc12 [Example 192, N-{[1,6-diethyl-4-(tetrahydro-2H-pyran-4-ylamino)-1H-pyrazolo[3,4-b]pyridin-5-yl]methyl}-1-naphthalenecarboxamide] | 0.126 to 1 | – |
| CCn1ncc2c(NC3CCOCC3)c(CNC(=O)c3ccc(N(C)C)cc3)cnc21 [Example 88, 4-(dimethylamino)-N-{[1-ethyl-4-(tetrahydro-2H-pyran-4-ylamino)-1H-pyrazolo[3,4-b]pyridin-5-yl]methyl}benzamide] | 0.126 to 1 | – |
| CCn1ncc2c(NC3CCOCC3)c(CNS(=O)(=O)c3cccs3)c(C)nc21 [Example 108, N-{[1-ethyl-6-methyl-4-(tetrahydro-2H-pyran-4-ylamino)-1H-pyrazolo[3,4-b]pyridin-5-yl]methyl}-2-thiophenesulfonamide] | 0.126 to 1 | – |
| CCc1nc2c(cnn2CC)c(NC2CCOCC2)c1CNC(=O)c1cccc2c1OCC2 [Example 161, N-{[1,6-diethyl-4-(tetrahydro-2H-pyran-4-ylamino)-1H-pyrazolo[3,4-b]pyridin-5-yl]methyl}-2,3-dihydro-1-benzofuran-7-carboxamide] | 0.01 to 0.1 | – |

Second part, led by results:

| IC50 [3] [nM] | SMILES | other results |
| --- | --- | --- |
| 0.01 to 0.1 | CCc1nc2c(cnn2CC)c(NC2CCN(C(N)=O)CC2)c1CNC(=O)c1ccc(C(C)(C)C)cc1 [Example 243, 4-({5-[({[4-(1-dimethylethyl)phenyl]carbonyl}amino)methyl]-1,6-diethyl-1H-pyrazolo[3,4-b]pyridin-4-yl}amino)-1-piperidinecarboxamide] | – |
| 0.126 to 1 | CCc1nc2c(cnn2CC)c(NC2CCOCC2)c1CNC(=O)c1ccc(F)cc1F [Example 308, N-{[1,6-diethyl-4-(tetrahydro-2H-pyran-4-ylamino)-1H-pyrazolo[3,4-b]pyridin-5-yl]methyl}-2,4-difluorobenzamide] | – |
| 0.01 to 0.1 | CCc1nc2c(cnn2CC)c(NC2CCN(C(N)=O)CC2)c1CNC(=O)c1ccc2c(=O)[nH][nH]c2c1 [Example 248, N-[(4-{[1-(aminocarbonyl)-4-piperidinyl]amino}-1,6-diethyl-1H-pyrazolo[3,4-b]pyridin-5-yl)methyl]-3-oxo-2,3-dihydro-1H-indazole-6-carboxamide] | – |
| 0.01 to 0.1 | CCn1ncc2c(NC3CCOCC3)c(CNC(=O)c3ccc(C(C)(C)C)cc3)c(C)nc21 [Example 277, 4-(1,1-dimethylethyl)-N-{[1-ethyl-6-methyl-4-(tetrahydro-2H-pyran-4-ylamino)-1H-pyrazolo[3,4-b]pyridin-5-yl]methyl}benzamide] | – |
| 0.01 to 0.1 | CCc1nc2c(cnn2CC)c(NC2CCOCC2)c1CNC(=O)c1ccsc1 [Example 235, N-{[1,6-diethyl-4-(tetrahydro-2H-pyran-4-ylamino)-1H-pyrazolo[3,4-b]pyridin-5-yl]methyl}-3-thiophenecarboxamide] | – |
